# Assay results taken from US10913765B2, “Liver specific delivery-based gemcitabine prodrug nucleoside cyclic phosphate compound, and application thereof” (ZHEJIANG PALO ALTO PHARMACEUTICALS, INC., priority 2017, dated 2021).
# Settings: human, 5 min, 25 μM, pH 7.4
# Method: Human liver microsomes (HLM) were purchased from IVT (In Vitro Technologies), lot number SSP, article number X008070.
# Enzymatic reaction was carried out in 100 mM KH2PO4 buffer solution (pH 7.4), the concentration of the test compounds was 25 M, the concentration of human liver microsomes was 2 mg/ml, and NADPH concentration was 2 mM. The reaction was initiated by NADPH finally added, and after reaction for 5 min in a constant-temperature shaking water bath kettle, 1.5 times of volume of methanol containing internal standard (PMPA) was immediately added to terminate the reaction.
# (§1) Centrifugation was carried out for 20 minutes at a maximum speed of 13,600 rpm using an Eppendorf tabletop centrifuge. Supernatant was taken, and after being blow-dried by a nitrogen blower, the supernatant was re-dissolved into a mobile phase A (0.1% formic acid v/v aqueous solution).
# (§2) Analytical column: Waters, Acquity UPLC HSS T3 column
# Column temperature: 40° C.
# (§3) Ion source: electrospray ionization source
# Ion mode: positive ion mode
# Capillary voltage: 3.0 kV
# Desolventizing airflow speed: 100 L/h
Compound,Conversion rate to dFdCMP relative to that of PA4001 [times],Conversion rate to dFdCMP relative to that of PA4003
Nc1ccn([C@@H]2O[C@H](COP3(=O)OCC[C@H](c4cc(Cl)ccc4F)O3)[C@@H](O)C2(F)F)c(=O)n1 (stereo partly drawn) [PA4004],1.3,~9.5 times
Nc1ccn([C@@H]2O[C@H](COP3(=O)OCC[C@H](c4cc(F)cc(Cl)c4)O3)[C@@H](O)C2(F)F)c(=O)n1 (stereo partly drawn) [PA4002],1.0,about 7.3 times

# Settings: human, 5 min, 25 μM, pH 7.4
# Remark: another data set of the same source
# Method: Human liver microsomes (HLM) were purchased from IVT (In Vitro Technologies), article number X008070, lot number IQF.
# Enzymatic reaction was carried out in 100 mM KH2PO4 buffer solution (pH 7.4), the concentration of the test compounds was 25 μM, the concentration of human liver microsomes was 2 mg/ml, and NADPH concentration was 2 mM. The reaction was initiated by NADPH finally added, and after reaction for 5 min in a constant-temperature shaking water bath kettle, 1.5 times of volume of methanol containing internal standard (PMPA) was immediately added to terminate the reaction.
# as §1, §2
# Column temperature: 40° C.
# as §3
# Ion mode: positive ion mode
# Capillary voltage: 3.0 kV
# Desolventizing airflow speed: 100 L/h
Compound,Activation Rate (rate of releasing monophosphate product dFdCMP) [pmol/min/mg HLM],Conversion rate to dFdCMP relative to that of PA4004
Nc1ccn([C@@H]2O[C@H](COP3(=O)OCC[C@H](c4cc(Cl)ccc4F)O3)[C@@H](O)C2(F)F)c(=O)n1 (stereo partly drawn) [PA4004],10.98 ± 1.23,
Nc1ccn([C@@H]2O[C@H](COP3(=O)OCC[C@H](c4cc(Cl)cc(Cl)c4)O3)[C@@H](O)C2(F)F)c(=O)n1 (stereo partly drawn) [PA4006],6.92 ± 0.01,
Nc1ccn([C@@H]2O[C@H](COP3(=O)OCC[C@H](c4cccc(Cl)c4F)O3)[C@@H](O)C2(F)F)c(=O)n1 (stereo partly drawn) [PA4010],9.56 ± 0.07,
Nc1ccn([C@@H]2O[C@H](COP3(=O)OCC[C@H](c4cc(F)ccc4Cl)O3)[C@@H](O)C2(F)F)c(=O)n1 (stereo partly drawn) [PA4011],35.28 ± 0.81,~3.2 times
Nc1ccn([C@@H]2O[C@H](COP3(=O)OCC[C@H](c4ccc(Cl)c(F)c4)O3)[C@@H](O)C2(F)F)c(=O)n1 (stereo partly drawn) [PA4009],10.45 ± 0.85,
Nc1ccn([C@@H]2O[C@H](COP3(=O)OCC[C@H](c4ccc(F)c(Cl)c4)O3)[C@@H](O)C2(F)F)c(=O)n1 (stereo partly drawn) [PA4008],5.45 ± 0.12,
Nc1ccn([C@@H]2O[C@H](COP3(=O)OCC[C@H](c4ccc(Cl)c(Cl)c4)O3)[C@@H](O)C2(F)F)c(=O)n1 (stereo partly drawn) [PA4021],5.25 ± 0.13,
Nc1ccn([C@@H]2O[C@H](COP3(=O)OCC[C@H](c4cc(Cl)ccc4Cl)O3)[C@@H](O)C2(F)F)c(=O)n1 (stereo partly drawn) [PA4012],38.95 ± 1.17,about 3.5 times
Nc1ccn([C@@H]2O[C@H](COP3(=O)OCC[C@H](c4cccc(F)c4F)O3)[C@@H](O)C2(F)F)c(=O)n1 (stereo partly drawn) [PA4014],6.49 ± 0.19,
Nc1ccn([C@@H]2O[C@H](COP3(=O)OCC[C@H](c4cc(F)ccc4F)O3)[C@@H](O)C2(F)F)c(=O)n1 (stereo partly drawn) [PA4013],7.23 ± 0.53,
Nc1ccn([C@@H]2O[C@H](COP3(=O)OCC[C@H](c4ccc(F)c(F)c4)O3)[C@@H](O)C2(F)F)c(=O)n1 (stereo partly drawn) [PA4017],4.32 ± 0.76,
Nc1ccn([C@@H]2O[C@H](COP3(=O)OCC[C@H](c4cccc(Cl)c4Cl)O3)[C@@H](O)C2(F)F)c(=O)n1 (stereo partly drawn) [PA4018],7.62 ± 0.48,
